Assay results published in article PMC4508061, “Selectivity Profiling and Biological Activity of Novel β-Carbolines as Potent and Selective DYRK1 Kinase Inhibitors” (PLoS ONE, 2015).
pIC50: −log10 of the molar value. “Also recorded” adds a separate entry of the source.

How the values were obtained:
TRK-B = TRK-B (Homo sapiens, UniProt Q16620); test: ProQinase radiometric kinase panel; settings: mean of 2 exp.
MEKK3 = MEKK3 (Homo sapiens, UniProt Q99759); test: ProQinase radiometric kinase panel; settings: mean of 2 exp.
DCAMKL2 = DCAMKL2 (Homo sapiens, UniProt Q8N568); test: ProQinase radiometric kinase panel; settings: mean of 2 exp.
EPHA7 = EPHA7 (Homo sapiens, UniProt Q15375); test: ProQinase radiometric kinase panel; settings: mean of 2 exp.
MAP4K2 = MAP4K2 (Homo sapiens, UniProt Q12851); test: ProQinase radiometric kinase panel; settings: mean of 2 exp.
MET = MET (Homo sapiens, UniProt P08581); test: ProQinase radiometric kinase panel; settings: mean of 2 exp.
VEGF-R3 = VEGF-R3 (Homo sapiens, UniProt P35916); test: ProQinase radiometric kinase panel; settings: mean of 2 exp.
GRK7 = GRK7 (Homo sapiens, UniProt Q8WTQ7); test: ProQinase radiometric kinase panel; settings: mean of 2 exp.
Chain of GRK7 (Q8WTQ7 whole entry): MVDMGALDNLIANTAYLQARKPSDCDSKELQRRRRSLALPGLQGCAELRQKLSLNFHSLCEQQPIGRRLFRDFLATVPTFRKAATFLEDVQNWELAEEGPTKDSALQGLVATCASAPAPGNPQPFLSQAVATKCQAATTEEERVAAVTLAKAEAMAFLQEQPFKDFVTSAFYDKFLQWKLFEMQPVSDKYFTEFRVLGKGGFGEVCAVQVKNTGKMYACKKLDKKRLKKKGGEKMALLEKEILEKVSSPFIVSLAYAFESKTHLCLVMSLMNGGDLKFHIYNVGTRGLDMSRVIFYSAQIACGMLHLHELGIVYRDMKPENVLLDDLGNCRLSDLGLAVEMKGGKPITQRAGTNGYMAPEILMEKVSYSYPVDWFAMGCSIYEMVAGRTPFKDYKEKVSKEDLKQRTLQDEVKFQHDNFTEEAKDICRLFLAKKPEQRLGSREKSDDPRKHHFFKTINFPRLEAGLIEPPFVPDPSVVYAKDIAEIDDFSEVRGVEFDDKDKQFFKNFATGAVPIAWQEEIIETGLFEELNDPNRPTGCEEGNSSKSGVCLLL

PHKG2 = PHKG2 (Homo sapiens, UniProt P15735); test: ProQinase radiometric kinase panel; settings: mean of 2 exp.
Aurora-A = Aurora-A (Homo sapiens, UniProt O14965); test: ProQinase radiometric kinase panel; settings: mean of 2 exp.
HRI = HRI (Homo sapiens, UniProt Q9BQI3); test: ProQinase radiometric kinase panel; settings: mean of 2 exp.
RET = RET (Homo sapiens, UniProt P07949); test: ProQinase radiometric kinase panel; settings: mean of 2 exp.
LIMK1 = LIMK1 (Homo sapiens, UniProt P53667); test: ProQinase radiometric kinase panel; settings: mean of 2 exp.
Chain of LIMK1 (P53667 whole entry): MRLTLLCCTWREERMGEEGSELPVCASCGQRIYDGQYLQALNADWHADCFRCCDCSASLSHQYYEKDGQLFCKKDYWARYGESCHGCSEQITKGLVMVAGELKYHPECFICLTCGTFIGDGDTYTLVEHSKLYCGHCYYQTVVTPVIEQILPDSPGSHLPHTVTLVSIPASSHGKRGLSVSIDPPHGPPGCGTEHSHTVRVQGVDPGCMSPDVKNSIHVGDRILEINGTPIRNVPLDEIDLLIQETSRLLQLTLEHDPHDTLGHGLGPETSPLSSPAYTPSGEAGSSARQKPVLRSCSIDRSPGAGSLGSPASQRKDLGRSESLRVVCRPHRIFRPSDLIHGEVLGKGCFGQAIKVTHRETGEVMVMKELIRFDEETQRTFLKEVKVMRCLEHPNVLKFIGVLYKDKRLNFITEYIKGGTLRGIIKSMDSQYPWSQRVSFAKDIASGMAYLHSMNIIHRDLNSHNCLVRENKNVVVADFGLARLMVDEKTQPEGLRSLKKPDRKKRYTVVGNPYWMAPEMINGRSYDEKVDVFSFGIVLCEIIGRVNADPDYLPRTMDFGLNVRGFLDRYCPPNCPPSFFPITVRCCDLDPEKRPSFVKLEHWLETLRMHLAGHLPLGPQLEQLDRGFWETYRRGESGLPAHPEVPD
Experimental: Gini coefficients were calculated and the Lorenz curve (Fig 3B) was plotted by applying the Microsoft Excel spreadsheet provided by Graczyk [44].
radiometric protein kinase assays.

SYK = SYK (Homo sapiens, UniProt P43405); test: ProQinase radiometric kinase panel; settings: mean of 2 exp.
ERK7 = ERK7 (Homo sapiens, UniProt Q8TD08); test: ProQinase radiometric kinase panel; settings: mean of 2 exp.
MAP3K1 = MAP3K1 (Homo sapiens, UniProt Q13233); test: ProQinase radiometric kinase panel; settings: mean of 2 exp.
MAO-A = target: T1, MAO-A (Homo sapiens, UniProt P21397); test: MAO-GLO assay; type: biochemical
T1 sequence (P21397 1-527): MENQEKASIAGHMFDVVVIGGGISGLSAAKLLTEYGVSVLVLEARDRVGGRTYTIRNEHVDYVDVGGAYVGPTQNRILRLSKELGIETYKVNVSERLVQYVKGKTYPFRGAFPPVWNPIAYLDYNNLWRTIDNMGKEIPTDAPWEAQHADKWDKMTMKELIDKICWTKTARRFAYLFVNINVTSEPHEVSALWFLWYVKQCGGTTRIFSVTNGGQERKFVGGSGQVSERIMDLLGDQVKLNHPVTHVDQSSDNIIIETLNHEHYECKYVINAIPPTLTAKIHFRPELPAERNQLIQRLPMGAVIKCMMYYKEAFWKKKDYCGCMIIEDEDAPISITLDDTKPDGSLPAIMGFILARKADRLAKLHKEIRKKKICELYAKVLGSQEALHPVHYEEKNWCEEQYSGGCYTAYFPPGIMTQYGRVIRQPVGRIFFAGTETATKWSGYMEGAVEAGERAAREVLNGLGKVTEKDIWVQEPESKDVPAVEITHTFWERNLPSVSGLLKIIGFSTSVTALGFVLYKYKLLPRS
Experimental: 2 were calculated. Kinase activity of DYRK1A was determined by radiometric assays using the peptide DYRKtide as a substrate. MAO-A activity was measured with the help of the MAO-GLO assay kit (Promega). IC50 values were calculated by curve fitting with the help of […]
the […] PRISM 5.0 program after automatic outlier elimination. The graphs present

NEK4 = NEK4 (Homo sapiens, UniProt P51957); test: ProQinase radiometric kinase panel; settings: mean of 2 exp.
CDK1/CycB1 = CDK1/CycB1 (Homo sapiens, UniProt P06493); test: ProQinase radiometric kinase panel; settings: mean of 2 exp.
PAK2 = PAK2 (Homo sapiens, UniProt Q13177); test: ProQinase radiometric kinase panel; settings: mean of 2 exp.
CK2-alpha2 = CK2-alpha2 (Homo sapiens, UniProt P19784); test: ProQinase radiometric kinase panel; settings: mean of 2 exp.
TBK1 = TBK1 (Homo sapiens, UniProt Q9UHD2); test: ProQinase radiometric kinase panel; settings: mean of 2 exp.
TLK2 = TLK2 (Homo sapiens, UniProt Q86UE8); test: ProQinase radiometric kinase panel; settings: mean of 2 exp.
STK17A = STK17A (Homo sapiens, UniProt Q9UEE5); test: ProQinase radiometric kinase panel; settings: mean of 2 exp.
Chain of STK17A (Q9UEE5 whole entry): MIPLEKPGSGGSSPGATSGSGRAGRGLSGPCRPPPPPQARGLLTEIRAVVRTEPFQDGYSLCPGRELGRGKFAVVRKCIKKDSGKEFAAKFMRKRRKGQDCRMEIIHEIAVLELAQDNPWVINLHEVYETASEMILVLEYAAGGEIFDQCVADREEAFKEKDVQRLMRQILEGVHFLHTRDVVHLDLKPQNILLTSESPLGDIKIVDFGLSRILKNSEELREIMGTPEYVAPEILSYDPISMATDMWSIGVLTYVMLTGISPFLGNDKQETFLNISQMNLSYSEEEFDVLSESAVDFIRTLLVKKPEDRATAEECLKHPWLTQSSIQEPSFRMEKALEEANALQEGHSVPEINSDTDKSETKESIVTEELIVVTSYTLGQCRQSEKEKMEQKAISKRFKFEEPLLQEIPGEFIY

SNF1LK2 = SNF1LK2 (Homo sapiens, UniProt Q9H0K1); test: ProQinase radiometric kinase panel; settings: mean of 2 exp.
Chain of SNF1LK2 (Q9H0K1 whole entry): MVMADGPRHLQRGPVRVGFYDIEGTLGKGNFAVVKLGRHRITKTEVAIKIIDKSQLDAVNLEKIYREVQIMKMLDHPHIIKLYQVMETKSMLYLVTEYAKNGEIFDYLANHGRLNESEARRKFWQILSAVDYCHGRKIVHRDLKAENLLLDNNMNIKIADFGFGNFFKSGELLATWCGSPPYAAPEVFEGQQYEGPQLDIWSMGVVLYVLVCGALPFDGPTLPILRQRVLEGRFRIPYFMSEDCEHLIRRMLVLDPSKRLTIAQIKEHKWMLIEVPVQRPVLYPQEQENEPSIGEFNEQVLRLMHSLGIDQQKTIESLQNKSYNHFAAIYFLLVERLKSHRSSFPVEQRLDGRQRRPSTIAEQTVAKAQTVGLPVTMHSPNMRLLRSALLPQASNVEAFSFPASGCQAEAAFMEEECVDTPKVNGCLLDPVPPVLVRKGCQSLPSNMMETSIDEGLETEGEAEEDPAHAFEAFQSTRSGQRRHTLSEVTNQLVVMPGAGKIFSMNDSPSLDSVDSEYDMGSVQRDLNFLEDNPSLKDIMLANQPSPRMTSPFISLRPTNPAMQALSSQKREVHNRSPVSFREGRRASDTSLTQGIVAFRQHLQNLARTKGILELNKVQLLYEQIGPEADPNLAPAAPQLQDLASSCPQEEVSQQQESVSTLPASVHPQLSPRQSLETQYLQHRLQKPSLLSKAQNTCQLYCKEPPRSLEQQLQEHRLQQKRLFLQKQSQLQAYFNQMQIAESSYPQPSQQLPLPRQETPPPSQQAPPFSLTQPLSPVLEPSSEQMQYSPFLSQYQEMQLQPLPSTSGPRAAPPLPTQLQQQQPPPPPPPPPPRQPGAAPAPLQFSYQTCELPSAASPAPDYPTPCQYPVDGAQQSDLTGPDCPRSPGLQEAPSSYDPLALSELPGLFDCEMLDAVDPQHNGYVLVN

PAK1 = PAK1 (Homo sapiens, UniProt Q13153); test: ProQinase radiometric kinase panel; settings: mean of 2 exp.
Chain of PAK1 (Q13153 whole entry): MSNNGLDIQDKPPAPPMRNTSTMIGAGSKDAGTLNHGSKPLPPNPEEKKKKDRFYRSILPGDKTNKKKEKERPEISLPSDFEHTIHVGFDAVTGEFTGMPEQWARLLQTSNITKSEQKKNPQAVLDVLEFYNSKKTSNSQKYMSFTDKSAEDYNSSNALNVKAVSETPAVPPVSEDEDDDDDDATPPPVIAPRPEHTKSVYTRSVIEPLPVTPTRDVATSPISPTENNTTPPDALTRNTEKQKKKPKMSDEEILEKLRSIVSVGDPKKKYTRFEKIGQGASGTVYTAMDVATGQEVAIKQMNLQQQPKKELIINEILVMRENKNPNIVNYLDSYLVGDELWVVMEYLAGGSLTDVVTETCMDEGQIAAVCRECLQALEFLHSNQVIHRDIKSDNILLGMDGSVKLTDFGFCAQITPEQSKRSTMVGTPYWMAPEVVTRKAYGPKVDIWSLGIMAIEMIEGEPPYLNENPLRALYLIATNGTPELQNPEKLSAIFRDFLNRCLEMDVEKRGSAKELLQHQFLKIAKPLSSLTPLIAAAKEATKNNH

EPHB4 = EPHB4 (Homo sapiens, UniProt P54760); test: ProQinase radiometric kinase panel; settings: mean of 2 exp.
EPHB3 = EPHB3 (Homo sapiens, UniProt P54753); test: ProQinase radiometric kinase panel; settings: mean of 2 exp.
SRPK2 = SRPK2 (Homo sapiens, UniProt P78362); test: ProQinase radiometric kinase panel; settings: mean of 2 exp.
MEKK2 = MEKK2 (Homo sapiens, UniProt Q9Y2U5); test: ProQinase radiometric kinase panel; settings: mean of 2 exp.
Chain of MEKK2 (Q9Y2U5 whole entry): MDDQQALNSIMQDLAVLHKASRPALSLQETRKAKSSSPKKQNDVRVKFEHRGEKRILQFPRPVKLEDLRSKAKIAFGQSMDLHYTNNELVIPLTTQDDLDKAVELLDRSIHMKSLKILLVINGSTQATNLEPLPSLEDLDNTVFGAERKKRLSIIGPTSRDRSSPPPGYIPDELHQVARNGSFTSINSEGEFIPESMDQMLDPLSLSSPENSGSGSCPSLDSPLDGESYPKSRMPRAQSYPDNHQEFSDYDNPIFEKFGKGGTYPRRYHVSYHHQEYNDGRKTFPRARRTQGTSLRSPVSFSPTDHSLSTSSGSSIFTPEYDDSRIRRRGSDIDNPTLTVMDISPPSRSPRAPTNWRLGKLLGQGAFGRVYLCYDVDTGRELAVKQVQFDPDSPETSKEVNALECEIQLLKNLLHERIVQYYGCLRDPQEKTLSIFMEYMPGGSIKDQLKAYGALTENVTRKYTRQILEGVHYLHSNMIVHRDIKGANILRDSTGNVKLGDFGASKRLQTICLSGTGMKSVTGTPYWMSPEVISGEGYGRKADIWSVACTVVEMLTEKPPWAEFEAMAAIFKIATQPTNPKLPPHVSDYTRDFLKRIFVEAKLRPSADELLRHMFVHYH

ASK1 = ASK1 (Homo sapiens, UniProt Q99683); test: ProQinase radiometric kinase panel; settings: mean of 2 exp.
Chain of ASK1 (Q99683 whole entry): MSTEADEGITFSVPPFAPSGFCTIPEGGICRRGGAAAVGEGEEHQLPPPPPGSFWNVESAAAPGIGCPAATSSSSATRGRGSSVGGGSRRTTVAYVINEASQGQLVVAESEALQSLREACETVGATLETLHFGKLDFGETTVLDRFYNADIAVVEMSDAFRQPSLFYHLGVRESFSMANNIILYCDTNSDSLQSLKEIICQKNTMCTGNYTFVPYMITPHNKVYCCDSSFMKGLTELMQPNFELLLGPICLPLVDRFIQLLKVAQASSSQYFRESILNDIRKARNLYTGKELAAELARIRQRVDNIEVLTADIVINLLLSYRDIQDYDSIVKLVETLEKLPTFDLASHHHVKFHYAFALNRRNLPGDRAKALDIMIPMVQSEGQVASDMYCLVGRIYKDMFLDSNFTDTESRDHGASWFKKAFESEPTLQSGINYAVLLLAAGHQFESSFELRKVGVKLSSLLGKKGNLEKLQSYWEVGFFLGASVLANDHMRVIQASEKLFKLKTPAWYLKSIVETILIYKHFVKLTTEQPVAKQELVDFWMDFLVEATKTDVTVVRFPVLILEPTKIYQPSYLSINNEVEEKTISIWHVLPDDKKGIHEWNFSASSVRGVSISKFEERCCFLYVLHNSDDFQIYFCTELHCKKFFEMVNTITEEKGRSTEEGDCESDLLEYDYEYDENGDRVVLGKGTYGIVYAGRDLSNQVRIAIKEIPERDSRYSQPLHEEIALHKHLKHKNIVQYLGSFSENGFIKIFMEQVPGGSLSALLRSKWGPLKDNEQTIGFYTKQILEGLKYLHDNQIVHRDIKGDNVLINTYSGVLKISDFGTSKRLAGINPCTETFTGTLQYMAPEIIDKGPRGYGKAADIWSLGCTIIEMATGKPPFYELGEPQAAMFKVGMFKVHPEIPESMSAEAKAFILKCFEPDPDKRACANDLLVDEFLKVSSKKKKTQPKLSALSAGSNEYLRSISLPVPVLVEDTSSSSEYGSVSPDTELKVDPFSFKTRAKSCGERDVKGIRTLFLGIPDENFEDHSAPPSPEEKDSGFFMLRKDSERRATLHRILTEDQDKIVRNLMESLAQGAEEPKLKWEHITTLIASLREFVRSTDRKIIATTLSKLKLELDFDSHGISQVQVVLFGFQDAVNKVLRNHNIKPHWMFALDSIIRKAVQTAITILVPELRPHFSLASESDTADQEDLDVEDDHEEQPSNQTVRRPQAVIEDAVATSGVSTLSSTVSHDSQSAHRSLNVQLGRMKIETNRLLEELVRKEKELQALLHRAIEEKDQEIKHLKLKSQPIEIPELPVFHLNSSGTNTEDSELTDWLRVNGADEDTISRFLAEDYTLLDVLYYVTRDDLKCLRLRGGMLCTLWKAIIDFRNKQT

## COc1ccc2c3ccnc(Cl)c3n(CC#N)c2c1 [AnnH75]
TRK-B
  residual activity at 1 µM, Mean: 72 % of control
MEKK3
  residual activity at 1 µM, Mean: 97 % of control
DCAMKL2
  residual activity at 1 µM, Mean: 97 % of control
EPHA7
  residual activity at 1 µM, Mean: 107 % of control
MAP4K2
  residual activity at 1 µM, Mean: 93 % of control
MET
  residual activity at 1 µM, Mean: 100 % of control
VEGF-R3
  residual activity at 1 µM, Mean: 93 % of control
GRK7
  residual activity at 1 µM, Mean: 103 % of control
PHKG2
  residual activity at 1 µM, Mean: 94 % of control
Aurora-A
  residual activity at 1 µM, Mean: 89 % of control
HRI
  residual activity at 1 µM, Mean: 101 % of control
RET
  residual activity at 1 µM, Mean: 89 % of control
LIMK1
  residual activity at 1 µM, Mean: 57 % of control
SYK
  residual activity at 1 µM, Mean: 101 % of control
ERK7
  residual activity at 1 µM, Mean: 59 % of control
MAP3K1
  residual activity at 1 µM, Mean: 97 % of control
MAO-A
  effect on MAO-A: complete elimination of MAO-A inhibition; also recorded: no residual effect on MAO-A
MAO-A; n = 3–5 concentration response curves, read-out: Inhibition of MAO-A IC50
  pIC50: < 5.00
NEK4
  residual activity at 1 µM, Mean: 98 % of control
CDK1/CycB1
  residual activity at 1 µM, Mean: 81 % of control
PAK2
  residual activity at 1 µM, Mean: 105 % of control
CK2-alpha2
  residual activity at 1 µM, Mean: 101 % of control
TBK1
  residual activity at 1 µM, Mean: 94 % of control
TLK2
  residual activity at 1 µM, Mean: 108 % of control
STK17A
  residual activity at 1 µM, Mean: 89 % of control
SNF1LK2
  residual activity at 1 µM, Mean: 91 % of control
PAK1
  residual activity at 1 µM, Mean: 103 % of control
EPHB4
  residual activity at 1 µM, Mean: 95 % of control
EPHB3
  residual activity at 1 µM, Mean: 96 % of control
SRPK2
  residual activity at 1 µM, Mean: 106 % of control
MEKK2
  residual activity at 1 µM, Mean: 105 % of control
ASK1
  residual activity at 1 µM, Mean: 104 % of control
